Results: ChEMBL document CHEMBL3098059, “Identification by in silico and in vitro screenings of small organic molecules acting as reversible inhibitors of kallikreins” (Eur J Med Chem, 2013)
The source made the active and inactive calls. The rule behind the calls is not given here.

Legend:
[1] = target: T1, Kallikrein-14 (Homo sapiens) (UniProt Q9P0G3); assay: Reversible inhibition of human kallikrein14 using Boc-Val-Pro-Arg-AMC as substrate after 15 to 60 mins by fluorescence assay
T1 sequence (whole entry): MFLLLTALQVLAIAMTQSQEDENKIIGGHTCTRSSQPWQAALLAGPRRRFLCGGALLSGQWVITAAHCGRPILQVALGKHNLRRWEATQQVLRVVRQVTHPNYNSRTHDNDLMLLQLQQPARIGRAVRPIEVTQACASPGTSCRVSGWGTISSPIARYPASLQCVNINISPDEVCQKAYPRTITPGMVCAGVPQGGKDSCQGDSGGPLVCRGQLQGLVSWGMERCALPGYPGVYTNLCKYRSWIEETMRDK

[2] = target: T2, Suppressor of tumorigenicity 14 protein (Homo sapiens) (UniProt Q9Y5Y6); assay: Reversible inhibition of matriptase (unknown origin) using Boc-Gln-Ala-Arg-AMC as substrate after 15 to 60 mins by fluorescence assay
T2 sequence (whole entry): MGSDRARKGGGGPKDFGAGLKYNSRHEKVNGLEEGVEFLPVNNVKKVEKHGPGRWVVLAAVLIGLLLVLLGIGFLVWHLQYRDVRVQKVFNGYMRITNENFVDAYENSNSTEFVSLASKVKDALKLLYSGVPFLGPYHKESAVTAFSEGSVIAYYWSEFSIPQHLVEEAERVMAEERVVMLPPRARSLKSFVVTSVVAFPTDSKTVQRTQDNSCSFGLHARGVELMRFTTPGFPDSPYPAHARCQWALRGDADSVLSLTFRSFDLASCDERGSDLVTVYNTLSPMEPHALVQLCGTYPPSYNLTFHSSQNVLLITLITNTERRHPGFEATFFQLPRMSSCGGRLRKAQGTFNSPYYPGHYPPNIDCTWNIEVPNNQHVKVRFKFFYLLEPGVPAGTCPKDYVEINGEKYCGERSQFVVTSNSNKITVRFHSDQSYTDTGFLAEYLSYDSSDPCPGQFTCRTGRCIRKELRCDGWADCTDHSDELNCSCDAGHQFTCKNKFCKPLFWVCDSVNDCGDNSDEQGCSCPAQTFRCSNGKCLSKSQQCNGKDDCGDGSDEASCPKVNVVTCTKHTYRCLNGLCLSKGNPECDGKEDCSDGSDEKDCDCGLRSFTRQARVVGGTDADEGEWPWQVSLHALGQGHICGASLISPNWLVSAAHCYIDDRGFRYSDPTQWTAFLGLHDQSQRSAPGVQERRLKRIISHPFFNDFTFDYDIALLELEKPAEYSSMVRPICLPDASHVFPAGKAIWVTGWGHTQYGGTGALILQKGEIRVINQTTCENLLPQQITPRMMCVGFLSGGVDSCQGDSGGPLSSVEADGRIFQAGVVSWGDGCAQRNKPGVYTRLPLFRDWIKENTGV

[3] = target: T3, Kallikrein-14 (Homo sapiens, UniProt Q9P0G3); assay: Inhibition of human kallikrein14 using Boc-Val-Pro-Arg-AMC as substrate after 15 mins by fluorescence assay
T3 sequence (Q9P0G3 whole entry): T1 sequence (whole entry)

[4] = Cytotoxicity against human keratinocytes assessed as cell viability at 10 uM after 24 to 48 hrs by neutral red assay; assay type: cell-based, Keratinocyte; conditions: for Activity: keratinocyte, 10 µM
[5] = target: T4, Kallikrein-7 (Homo sapiens, UniProt P49862); assay: Inhibition of human kallikrein7 using Suc-Leu-Leu-Val-Tyr-AMC as substrate at 50 uM after 15 mins by fluorescence assay
Target sequence in this assay (P49862 30-253 limits assumed): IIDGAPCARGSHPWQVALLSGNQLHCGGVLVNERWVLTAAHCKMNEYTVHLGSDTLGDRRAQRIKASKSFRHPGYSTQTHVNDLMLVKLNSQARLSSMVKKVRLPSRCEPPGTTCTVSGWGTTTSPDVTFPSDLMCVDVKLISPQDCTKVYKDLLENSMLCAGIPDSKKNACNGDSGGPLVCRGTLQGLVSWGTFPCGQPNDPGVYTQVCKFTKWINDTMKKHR

[6] = target: T4, Kallikrein-7; assay: Reversible inhibition of human kallikrein7 using Suc-Leu-Leu-Val-Tyr-AMC as substrate after 15 to 60 mins by fluorescence assay
Target sequence in this assay (P49862 30-253 limits assumed): as above

[7] = target: T5, Suppressor of tumorigenicity 14 protein (Homo sapiens, UniProt Q9Y5Y6); assay: Inhibition of matriptase (unknown origin) using Boc-Gln-Ala-Arg-AMC as substrate after 15 mins by fluorescence assay
T5 sequence (Q9Y5Y6 whole entry): T2 sequence (whole entry)

[8] = target: Kallikrein-5 (Homo sapiens) (UniProt Q9Y337); assay: Inhibition of human kallikrein5 using Boc-Val-Pro-Arg-AMC as substrate at 50 uM after 15 mins by fluorescence assay
[9] = target: Kallikrein-5 (Homo sapiens) (UniProt Q9Y337); assay: Reversible inhibition of human kallikrein5 using Boc-Val-Pro-Arg-AMC as substrate after 15 to 60 mins by fluorescence assay
[10] = target: T6, Kallikrein-5 (Homo sapiens, UniProt Q9Y337); assay: Inhibition of human kallikrein5 using Boc-Val-Pro-Arg-AMC as substrate after 15 mins by fluorescence assay
T6 sequence (Q9Y337 whole entry): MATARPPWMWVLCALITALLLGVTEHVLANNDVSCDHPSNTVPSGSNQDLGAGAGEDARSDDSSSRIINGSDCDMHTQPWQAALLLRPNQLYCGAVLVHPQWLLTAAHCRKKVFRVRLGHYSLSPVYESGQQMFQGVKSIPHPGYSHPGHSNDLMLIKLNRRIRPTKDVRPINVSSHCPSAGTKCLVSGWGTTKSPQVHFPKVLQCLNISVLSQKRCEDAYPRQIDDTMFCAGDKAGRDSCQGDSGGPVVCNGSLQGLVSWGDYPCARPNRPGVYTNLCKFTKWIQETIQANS

[11] = target: T4, Kallikrein-7; assay: Mixed-type inhibition of human kallikrein7 using Suc-Leu-Leu-Val-Tyr-AMC as substrate assessed as enzyme-substrate-inhibitor complex after 15 to 60 mins by Lineweaver-Burk/Eadie-Hofstee plot analysis
Target sequence in this assay (P49862 whole entry): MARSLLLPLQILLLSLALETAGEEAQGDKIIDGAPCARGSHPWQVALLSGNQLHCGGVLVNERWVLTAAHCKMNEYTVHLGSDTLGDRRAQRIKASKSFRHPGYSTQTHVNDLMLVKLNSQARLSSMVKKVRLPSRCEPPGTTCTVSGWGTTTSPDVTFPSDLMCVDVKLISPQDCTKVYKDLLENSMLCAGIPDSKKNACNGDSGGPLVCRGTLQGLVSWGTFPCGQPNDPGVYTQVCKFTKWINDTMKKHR

[12] = target: T4, Kallikrein-7; assay: Ratio of Ki for mixed-type inhibition of human kallikrein7 assessed as enzyme-substrate-inhibitor complex to Ki for mixed-type inhibition of human kallikrein7 assessed as enzyme-inhibitor complex
Target sequence in this assay (P49862 30-253 limits assumed): as the sequence (P49862 30-253 limits assumed) above

[13] = target: T6, Kallikrein-5; assay: Competitive inhibition of human kallikrein5 using Boc-Val-Pro-Arg-AMC as substrate after 15 to 60 mins by Lineweaver-Burk/Eadie-Hofstee plot analysis
[14] = target: T4, Kallikrein-7; assay: Inhibition of human kallikrein7 using Suc-Leu-Leu-Val-Tyr-AMC as substrate after 15 mins by fluorescence assay
Target sequence in this assay (P49862 whole entry): as the sequence (P49862 whole entry) above

[15] = target: T4, Kallikrein-7; assay: Mixed-type inhibition of human kallikrein7 using Suc-Leu-Leu-Val-Tyr-AMC as substrate assessed as enzyme-inhibitor complex after 15 to 60 mins by Lineweaver-Burk/Eadie-Hofstee plot analysis
Target sequence in this assay (P49862 whole entry): as above

[16] = target: T2, Suppressor of tumorigenicity 14 protein (Homo sapiens); assay: Inhibition of matriptase (unknown origin) using Boc-Gln-Ala-Arg-AMC as substrate at 50 uM after 15 mins by fluorescence assay
[17] = target: T1, Kallikrein-14 (Homo sapiens); assay: Inhibition of human kallikrein14 using Boc-Val-Pro-Arg-AMC as substrate at 50 uM after 15 mins by fluorescence assay
[18] = target: Kallikrein-5 (Homo sapiens) (UniProt Q9Y337); assay: Competitive inhibition of human kallikrein5 using Boc-Val-Pro-Arg-AMC as substrate at 50 uM after 15 to 60 mins by Lineweaver-Burk/Eadie-Hofstee plot analysis
[19] = Cytotoxicity against human keratinocytes assessed as cell viability at 1 uM after 24 to 48 hrs by neutral red assay; assay type: cell-based; conditions: keratinocyte
[20] = Cytotoxicity against human keratinocytes assessed as cell viability at 100 uM after 24 to 48 hrs by neutral red assay; assay type: cell-based; conditions: keratinocyte

SMILES | inhibition [1] | inhibition [2] | IC50 [3] | inhibition [5] | inhibition [6] | IC50 [7] | inhibition [8] | inhibition [9] | IC50 [10] | Ki [11] | Ratio Ki [12] | Ki [13] | IC50 [14] | Ki [15] | inhibition [16] | inhibition [17] | Activity [19] | Activity [4] | other results
O=c1c2ccccc2nc(CSc2ccccn2)n1-c1cccc(C(F)(F)F)c1 | Active | Active | – | < 30% | Active | – | < 30% | Active | – | – | – | – | – | – | < 30% | < 30% | – | – | –
CNC(=O)c1ccc(Nc2nnc(-c3ccc(O)cc3)c3ccccc23)cc1 | Active | Active | 96 µM | – | Active | – | < 30% | Active | – | 166 µM | 2 | – | 66 µM | 50 µM | < 30% | – | Non-toxic | Non-toxic | inhibition [18]: < 30%
COc1cc(/C=C(/C#N)c2nc3ccccc3[nH]2)ccc1OCC(=O)N1CCOCC1 | Active | Active | 108 µM | – | Active | 128 µM | – | Active | 125 µM | 131 µM | 2 | 121 µM | 83 µM | 55 µM | – | – | Non-toxic | Non-toxic | Activity [20]: Non-toxic
O=c1c2ccccc2nc(CSc2[nH]cnc3ncnc2-3)n1-c1cccc(C(F)(F)F)c1 | Active | Active | – | < 30% | Active | – | < 30% | Active | – | – | – | – | – | – | < 30% | < 30% | – | – | –
COc1cc(/C=C(/C#N)c2nc3ccccc3[nH]2)ccc1OCc1ccccc1 | Active | Active | – | < 30% | Active | – | < 30% | Active | – | – | – | – | – | – | < 30% | < 30% | – | – | –
COc1ccc(/C=C2/SC(=O)N(CNc3cc(F)ccc3C)C2=O)cc1OC | Active | Active | 112 µM | – | Active | 103 µM | – | Active | 117 µM | 166 µM | 2 | 95 µM | 106 µM | 83 µM | – | – | Non-toxic | Non-toxic | –

Now from value to compound, other results behind:

inhibition [1] | inhibition [2] | IC50 [3] | inhibition [5] | inhibition [6] | IC50 [7] | inhibition [8] | inhibition [9] | IC50 [10] | Ki [11] | Ratio Ki [12] | Ki [13] | IC50 [14] | Ki [15] | inhibition [16] | inhibition [17] | SMILES | Activity [19] | Activity [4] | other results
Active | Active | 122 µM | < 30% | Active | 138 µM | < 30% | Active | – | – | – | – | – | – | – | – | COc1ccc(/C=C/C(=O)c2ccc(O)cc2)cc1COc1ccc(Cl)cc1 | – | – | viability at 10 µM ([4]; keratinocytes, read-out: Activity): 30%
Active | Active | 106 µM | – | Active | 111 µM | – | Active | 131 µM | 129 µM | 2 | 112 µM | 107 µM | 70 µM | – | – | COc1cc(/C=C(/C#N)C(=O)Nc2ccc(O)cc2)ccc1O | – | – | –
Active | Active | – | < 30% | Active | – | < 30% | Active | – | – | – | – | – | – | < 30% | < 30% | CCOc1ccc(/C=C(/C#N)C(=O)Nc2ccc(O)cc2)cc1OC | – | – | –
Active | Active | – | < 30% | Active | – | < 30% | Active | – | – | – | – | – | – | < 30% | < 30% | CCOc1cc(/C=C(/C#N)C(=O)Nc2ccc(O)cc2)ccc1OC | – | – | –
Active | Active | 87 µM | – | Active | 75 µM | < 30% | Active | – | 140 µM | 2 | – | 113 µM | 95 µM | – | – | CCOc1cccc(NC(=O)/C(C#N)=C\c2ccc(OCC(=O)O)c(OC)c2)c1 | Non-toxic | Non-toxic | inhibition [18]: < 30%
Active | Active | 101 µM | – | Active | 98 µM | – | Active | 117 µM | 152 µM | 2 | 107 µM | 94 µM | 75 µM | – | – | CCOc1cc(/C=C(/C#N)C(=O)Nc2ccc(O)cc2)ccc1O | Non-toxic | Non-toxic | –
Active | Active | – | < 30% | Active | – | < 30% | Active | – | – | – | – | – | – | < 30% | < 30% | CCOc1cccc(NC(=O)/C(C#N)=C\c2ccc(O)c(OC)c2)c1 | – | – | –
Active | Active | – | < 30% | Active | – | < 30% | Active | – | – | – | – | – | – | < 30% | < 30% | CCOc1cccc(NC(=O)/C(C#N)=C\c2ccc(O)cc2)c1 | – | – | –
Active | Active | 99 µM | – | Active | 120 µM | – | Active | 127 µM | 164 µM | 2 | 100 µM | 90 µM | 72 µM | – | – | COc1ccc(NC(=O)/C(C#N)=C\c2ccc(O)c(OC)c2)cc1 | – | – | –
